Where “and” joins values, the source holds several entries; their conditions need not be identical. Equal values may be shown once. Read-outs that look alike come from different tables or passages of the source.
Key:
H1650 = experiment: Non Small Cell Lung Cancer proliferation assay (Alamar Blue reduction), H1650; format: cell-based, human; conditions: for inhibition at 10 µM: NCI-H1650, primary screening, H1650, read-out: PRIMARY HTS [%] H1650 (percentage inhibition); for inhibition at 10 µM / CONFIRMATION [%] 1650: 10 μM compound in 1% DMSO (v/v); for CONFIRMATION [%] 1650: percentage inhibition
Procedure, shortened: (§1)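 Compounds are tested at 1% DMSO final concentration against adherent NSCLC cells for 48 h at 37° C, with cytotoxicity measured by Alamar Blue reduction after a further 48 h incubation.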

H1975 = experiment: Non Small Cell Lung Cancer proliferation assay (Alamar Blue reduction), H1975; format: cell-based, human; conditions: for inhibition at 10 µM / IC50: Homo sapiens; for inhibition at 10 µM: NCI-H1975, primary screening, H1975, read-out: PRIMARY HTS [%] H1975 (percentage inhibition); for inhibition at 10 µM / CONFIRMATION [%] 1975: 10 μM compound in 1% DMSO (v/v); for CONFIRMATION [%] 1975: percentage inhibition
Procedure, shortened: as §1

H2030 = experiment: Non Small Cell Lung Cancer proliferation assay (Alamar Blue reduction), H2030; format: cell-based, human; conditions: for inhibition at 10 µM / IC50: Homo sapiens; for inhibition at 10 µM: NCI-H2030, primary screening, H2030, read-out: PRIMARY HTS [%] H2030 (percentage inhibition); for inhibition at 10 µM / CONFIRMATION [%] 2030: 10 μM compound in 1% DMSO (v/v); for CONFIRMATION [%] 2030: percentage inhibition
Procedure, shortened: as §1

H3255 = experiment: Non Small Cell Lung Cancer proliferation assay (Alamar Blue reduction), H3255; format: cell-based, human; conditions: for inhibition at 10 µM / IC50: Homo sapiens; for inhibition at 10 µM: NCI-H3255, primary screening, H3255, read-out: PRIMARY HTS [%] H3255 (percentage inhibition); for inhibition at 10 µM / CONFIRMATION [%] 3255: 10 μM compound in 1% DMSO (v/v); for CONFIRMATION [%] 3255: percentage inhibition
Procedure, shortened: as §1

[1] = system: NHBE (normal human bronchiolar epithelial cells); experiment: cells; conditions: Homo sapiens, NHBE, read-out: IC50(uM) NHBE, phenylfuran-2-carboxamide SAR summary
Procedure: (§2) NHBE (normal human bronchiolar epithelial cells) are primary cells obtained from donor lungs and commercially available from Cambrex. The HPL1D (human peripheral lung epithelial) cell line has been immortalized with the SV40 large T-antigen. WI-38: human lung fibroblast cell line. HPLID, NHBE and WI-38 cells will serve as controls in the chemical screens. WT: wildtype; WT*: over-expressed wildtype.
(§3) Compounds were tested in dose response studies from […] to 5 nM against several non small cell lung cancer lines: H358, H827, H1118, H1650, H1734, H1975, H2030, and H3255, and were also studied in a 72 hour cytotoxicity assay against the NHBE and WI-38 cell lines.

H358 = experiment: Non Small Cell Lung Cancer proliferation assay (Alamar Blue reduction), H358; format: cell-based; conditions: Homo sapiens, NCI-H358; read-out: Dose Response (uM) H358
Procedure: (§4) These cells have a doubling time of 1-2 days. All cell types are adherent and grow in colonies. The cells should be kept at a density between 50,000 cells/mL -500,000 cells/mL to provide for optimum growth and adequate nutrition. The cell line should be maintained at 37° C. in a humidified atmosphere with 5% CO2 in a sterile cell culture incubator.
(§5) Non Small Cell Lung Cancer Proliferation Assay.
(§6) High Controls for this assay are made by treating Non Small Cell Lung Cancer cells with 5 ul of 10% DMSO. [Final concentration in this assay is 1% DMSO].
(§7) Important Note: All compounds for testing in this assay should be done at the final concentration of 1% DMSO.
(§8) After addition, the cells are placed in cell culture incubator at 37° C. for 48 hours for complete treatment.
(§9) After drug treatment, cytotoxicity is measured by Alamar Blue reduction.
(§10) The cells are incubated for 48 hours at 37° C. to complete the Alamar Blue reduction.
(§11) The final step in the assay is to measure the amount of Alamar Blue reduction. […] The Alamar Blue fluorescence is measured at an excitation of 530 nm and emission of 590 nm.
(§12) For the NSCLC project, the cell based assay was screened against a small molecule library of approximately 200,000 compounds. The compound library is stored in our automated robotic freezer (Biophile) at −20° C. in 100% DMSO. Compound freeze and thaw cycles are kept to a minimum. […] This assay was performed on a fully automated linear track robotic platform (CRS F3 Robot System, Thermo Electron Corp., Ontario, Canada) utilizing several integrated peripherals for plate handling, liquid dispensing, and readout detection. […] The microplates are then placed at 37° C. for 48 hours to complete treatment of cells with compounds. Next, 5 ul of alamar blue was added using a liquid dispenser (Flexprop Precision Dispenser, Perkin Elmer, Mass., USA) and incubated for 48 hours at 37° C. The alamar blue prompt fluorescence was measured on Victor V (Victor^3 V, Perkin Elmer, Mass., USA) and output data files were loaded into ORIS (Oncology Research Informatics System, MSKCC, NY, USA), a screening data acquisition and analysis platform.
(§13) The dose response studies were done with the following standard procedure. First, the cells were counted and dispensed at 250 cells/well into 384-well microplates with compound. The cells were incubated for 48 hours at 37 C to complete treatment, and then alamar blue was added for an additional 48 hours. Finally, alamar blue reduction was measured and the data was loaded into ORIS, our data screening acquisition platform.

H827 = experiment: Non Small Cell Lung Cancer proliferation assay (Alamar Blue reduction), H827; format: cell-based; conditions: Homo sapiens; read-out: Dose Response (uM) H827
Procedure: as §4, with “[…] are grown and maintained in Corning 175 cm2 flasks in RPMI 1640 media supplemented with 10% FBS, 1% antibiotic solution, 1% additional glutamine and pyruvate. These” for “These”
(§14) Non Small Cell Lung Cancer Proliferation Assay. To perform the assay, the Non Small Cell Lung Cancer lines are diluted in media and plated into 384 well microplates at a final density of 250 cells in […]. To ensure consistency and minimal pipetting error, the cells are plated using the Multidrop 384 with the following settings: Rocker Switch set at 384, Volume 45 and Column 24.
(§15) Low Controls for this assay are made by treating Non Small Cell Lung Cancer cells with 5 ul of staurosporine at 250 uM in 10% DMSO and 1% SDS. [Final concentration in this assay is 25 uM staurosporine in 1% DMSO and 0.1% SDS.]
as §6
(§16) The remaining wells of the 384 microplate may be treated with different compounds depending on the study. Important Note: All compounds for testing in this assay should be done at the final concentration of 1% DMSO.
as §8
(§17) After drug treatment, cytotoxicity is measured by Alamar Blue reduction. 5 μL of Alamar Blue is added to the 384 microplates using the Flexdrop.
as §10, §11
(§18) For the NSCLC project, the cell based assay was screened against a small molecule library of approximately 200,000 compounds. The compound library is stored in our automated robotic freezer (Biophile) at −20° C. in 100% DMSO. Compound freeze and thaw cycles are kept to a minimum. Compounds for use are diluted into the appropriate concentration and plated into 384 well microplates using our custom built low volume 384-well head tool (TPS 384, Apricot Designs Inc., CA, USA). This assay was performed on a fully automated linear track robotic platform (CRS F3 Robot System, Thermo Electron Corp., Ontario, Canada) utilizing several integrated peripherals for plate handling, liquid dispensing, and readout detection. First, non-small cell lung cancer cell lines are dispensed into 384 well microplates (Corning #3712 Tissue Culture Treated Plate, Corning, N.Y., USA) with 5 μL of test compounds at 100 uM in 10% DMSO for screening studies or […] in 10% DMSO to 50 nM in 10% DMSO for dose response studies. The microplates are then placed at 37° C. for 48 hours to complete treatment of cells with compounds. Next, 5 ul of alamar blue was added using a liquid dispenser (Flexprop Precision Dispenser, Perkin Elmer, Mass., USA) and incubated for 48 hours at 37° C. The alamar blue prompt fluorescence was measured on Victor V (Victor^3 V, Perkin Elmer, Mass., USA) and output data files were loaded into ORIS (Oncology Research Informatics System, MSKCC, NY, USA), a screening data acquisition and analysis platform.

H1118 = experiment: Non Small Cell Lung Cancer proliferation assay (Alamar Blue reduction), H1118; format: cell-based; conditions: Homo sapiens; read-out: Dose Response (uM) H1118
Procedure: as §14, §15, §6, §16, §8, §17, §10, §11, §18, §13

H1734 = experiment: Non Small Cell Lung Cancer proliferation assay (Alamar Blue reduction), H1734; format: cell-based, human; conditions: Homo sapiens, NCI-H1734; read-out: Dose Response (uM) H1734
Procedure: as §4, §5, §6, §7, §8, §9, §10, §11, §12, §13

in vitro = conditions: human
Procedure: as §2, §3

[2] = Homo sapiens, NCI-H1650, phenylfuran-2-carboxamide SAR summary, read-out: IC50(uM) 1650
[3] = Homo sapiens, NCI-H1650, dose response 10 M to 5 nM, IC50, read-out: Dose Response (uM) H1650
[4] = NCI-H1975, dose response 10 M to 5 nM, IC50, read-out: Dose Response (uM) H1975
[5] = NCI-H2030, dose response 10 M to 5 nM, IC50, read-out: Dose Response (uM) H2030
[6] = NCI-H3255, dose response 10 M to 5 nM, IC50, read-out: Dose Response (uM) H3255

Row | IC50 (H1650; [2]) [µM] | IC50 (H1650; [3]) [µM] | IC50 (H1975; [4]) [µM] | IC50 (H2030; [5]) [µM] | IC50 (H3255; [6]) [µM] | IC50 (H358) [µM] | IC50 (H827) [µM] | IC50 (H1118) [µM] | IC50 (H1734) [µM] | SMILES | inhibition at 10 µM (H1650; Homo sapiens) [%] | CONFIRMATION [%] 1650 (H1650) | inhibition at 10 µM (H1975) [%] | CONFIRMATION [%] 1975 (H1975) | inhibition at 10 µM (H2030) [%] | CONFIRMATION [%] 2030 (H2030) | inhibition at 10 µM (H3255) [%] | CONFIRMATION [%] 3255 (H3255) [%] | IC50 [1] [µM] | IC50 at 72 h (in vitro; CytoTox (uM) NHBE) [µM] | IC50 at 72 h (in vitro; CytoTox (uM) WI-38) [µM] | also measured
1 | 1.6 |  |  |  |  |  |  |  |  | O=C(Nc1ccc(Cl)cc1C(F)(F)F)c1ccc([N+](=O)[O-])o1 [compound 64228] | 87 | 111% and 107% | 82 | 70% and 97% | 93 | 90% and 105% | 91 | 97 | 13.2 |  |  | IC50 (H1650; phenylfuran-2-carboxamide SAR summary, read-out: IC50(uM) 1650): 2.31 µM
2 | 1.39 |  |  |  |  |  |  |  |  | O=C(NC1CCCCC1)c1ccc([N+](=O)[O-])o1 [compound 71763] | 87 | 136% | 61 | 74% | 82 | 97% | 77 | 135 | 24.9 |  |  | IC50 (H1975; NCI-H1975, phenylfuran-2-carboxamide SAR summary, read-out: IC50(uM) 1975): 3.54 µM; IC50 (H2030; NCI-H2030, phenylfuran-2-carboxamide SAR summary, read-out: IC50(uM) 2030): 3.79 µM; IC50 (H3255; NCI-H3255, phenylfuran-2-carboxamide SAR summary, read-out: IC50(uM) 3255): 2.98 µM
3 |  | > 10 | > 10 | > 10 | > 10 | > 10 | > 10 | > 10 | > 10 | CN/N=C1\C=NN(c2ccc(C)cc2)C(=O)C1Cl (centres unmarked) [compound 257025] |  |  |  |  |  |  |  |  |  | > 10 | > 10 | 
4 |  | > 10 | > 10 | > 10 | > 10 | > 10 | > 10 | > 10 | > 10 | O=c1c(Cl)c(SCc2ccccc2)cnn1-c1ccccc1 [compound 257022] |  |  |  |  |  |  |  |  |  | > 10 | > 10 | 
